Reference: patent publication US20110245292A1, “2-HYDROXY-ETHANESULFONATE SALT” (AstraZeneca AB, priority 2008, published 2011)
Where a name gives a salt, the structure may show the parent alone.

Experiment: Gravimetric Vapour Sorption (GVS)
Type: physicochemical
Protocol: Gravimetric Vapour Sorption (GVS) profiles were measured using a Surface Measurements Systems Dynamic Vapour Sorption DVS-1 or a DVS Advantage instrument. The solid sample ca. 1-5 mg was placed into a glass vessel and the weight of the sample was recorded during a dual cycle step method (40 to 90 to 0 to 90 to 0% relative humidity (RH), in steps of 10% RH).

Compound	GVS mass increase, 1st cycle (1st cycle, sample of preparation 1 (step a))	GVS mass increase, 2nd cycle (2nd cycle, sample of preparation 1 (step a)) [%]	GVS weight increase at 80% RH (80% RH (±0.3%), material of preparation 2) [%]	GVS mass increase at 80% RH (80% RH, material of preparation 1)
O[C@](c1ccccc1)(c1cc(C[N+]23CCC(CC2)[C@@H](Oc2cccc(F)c2)C3)on1)C1CCCCC1.[Cl-] [(R)-1-[3-((R)-Cyclohexyl-hydroxy-phenyl-methyl)-isoxazol-5-ylmethyl]-3-(3-fluoro-phenoxy)-1-azonia-bicyclo[2.2.2]octane chloride]	approximately 5%	~6.5		
O[C@](c1ccccc1)(c1cc(C[N+]23CCC(CC2)[C@@H](Oc2cccc(F)c2)C3)on1)C1CCCCC1 [Salt Form A, (R)-1-[3-((R)-cyclohexyl-hydroxy-phenyl-methyl)-isoxazol-5-ylmethyl]-3-(3-fluoro-phenoxy)-1-azonia-bicyclo[2.2.2]octane 2-hydroxy-ethanesulfonate]			0.15	no mass increase
